Source: patent US20260083703A1, “INDOLINE DERIVATIVES AS SEROTONERGIC AGENTS USEFUL FOR THE TREATMENT OF DISORDERS RELATED THERETO” (MINDSET PHARMA INC., priority 2022, published 2026)
“And” between values parts separate entries of the source, which are not always exact repeats. Equal values may be shown once.

Legend:
[1] = target: T1, human 5-HT2A (h5-HT2A) receptor (Homo sapiens, UniProt P28223); experiment: FLIPR assay, human 5-HT2A, agonist mode; format: cell-based
T1 construct: expressed in transfected cells; grown under G418 and hygromycin B selection
Protocol: I. Assessment of the Effect of Exemplary Compounds of Formula I Targeting on Human 5-HT2A (h5-HT2A) Receptor Under Agonist Mode:
I.c. Experimental Methods and Procedures: • 1. Cells were cultured in cell culture medium (DMEM containing 10% FBS, 1×penicillin-streptomycin 300 μg/ml G418 and 100 μg/ml hygromycin B) at 37° C., 5% (v/v) CO2. • 2. One day before the assays, the cells were detached using TrypLE™ Express and cells were counted using cell counter. Only cells with >85% viability were used for the assay. • 3. 20000 cells/well were seeded in 30 μl/well culture medium to a 384-well cell plate and cells were incubated overnight at 37° C., 5% (v/v) CO2. • 4. On the assay day, 2×dye solution was prepared following the manual of the FLIPR® Calcium 6 Assay Kit: i. The dye was diluted with assay buffer (20 mM HEPES in 1×HBSS, PH7.4); ii. Probenecid was added to the final concentration of 5 mM; iii. Vortex vigorously for 1-2 minutes. • 5. Medium was removed from cell plate by flicking the cell plate on towel papers. • 6. 10 μl of assay buffer and 10 μl of 2×dye solution was added to each well of the cell plate. • 7. The cell plate was placed on plate shaker, the plate was agitated at 600 rpm for 2 minutes. The plate was incubated at 37° C. for 2 hours followed by additional 15-minute incubation at 25° C. • 8. 3×compound in assay buffer was prepared: a. Reference compounds were diluted to required concentration with DMSO. The compounds were added to a 384-well compound plate; b. Serial dilutions were performed; c. 10 mM test compounds were added to the compound plate, and 3-fold serial dilutions were performed. d. Transfer 60 nl/well of compounds from source plate to a 384-well compound plate (Corning, 3657) by using an Echo; e. Add 20 μl/well assay buffer to the compound plate; f. Mix the plate on plate shaker for 2 mins; • 9. The cell plate, compound plate and tips were put into FLIPR, 10 μl of 3× compound was transferred to the cell plate per well with FLIPR.
• i. The normalized fluorescence reading (RFU) was calculated as shown below, where Fmax and Fmin stand for maximum and minimum of calcium signal during defined time window: RFU=Fmax−Fmin. • ii. Calculate the percentage activation using following equation:
[formula] • Iii. Calculate EC50 by fitting % activation against log of compound concentrations with Hill equation using XLfit.

[2] = Liver microsomes stability, human; settings: for Predicted hepatic CL / Remaining Percentage / CLint scaled at 2 μM / half-life at 2 μM / microsomal CLint at 2 μM: human; for CLint scaled at 2 μM / half-life at 2 μM / microsomal CLint at 2 μM: pooled human liver microsomes
[3] = Liver microsomes stability, mouse; settings: for CLint scaled at 2 μM / half-life at 2 μM / microsomal CLint at 2 μM: male, microsomes
[4] = Liver microsomes stability, rat; settings: for CLint scaled at 2 μM / half-life at 2 μM / microsomal CLint at 2 μM: rat liver microsomes
[5] = tested on: Male, C57BL/6J mice; experiment: Mouse head twitch; format: in vivo; settings: for other behavioural and somatic signs accompanying head twitches: psilocybin at 3 and 10 mg/kg, 5-MeO DMT over 3-30 mg/kg
Protocol: The effect of different doses of representative compounds of Formula I are evaluated on head-twitch response (HTR) and other behavioural responses as behavior-based models of psychedelic activity.
Male, C57BL/6J mice (body weight range 20-30 g) were dosed with the appropriate dose of test article, and following a 1-minute pre-treatment time, placed in individual observation chambers. Animals were visually assessed for the incidence head twitches continuously over a 1 hr period. Head twitches were defined as a rapid jerk of the head which was not elicited by an external tactile stimulus (Come and Pickering, Psychopharmacologia, 1967, 11(1): 65-78). Each head twitch was individually counted by a trained observer, and the data expressed as the mean±SEM of 6-10 mice per group. Mice were used in a single experiment only.

T1 sequence (P28223 whole entry): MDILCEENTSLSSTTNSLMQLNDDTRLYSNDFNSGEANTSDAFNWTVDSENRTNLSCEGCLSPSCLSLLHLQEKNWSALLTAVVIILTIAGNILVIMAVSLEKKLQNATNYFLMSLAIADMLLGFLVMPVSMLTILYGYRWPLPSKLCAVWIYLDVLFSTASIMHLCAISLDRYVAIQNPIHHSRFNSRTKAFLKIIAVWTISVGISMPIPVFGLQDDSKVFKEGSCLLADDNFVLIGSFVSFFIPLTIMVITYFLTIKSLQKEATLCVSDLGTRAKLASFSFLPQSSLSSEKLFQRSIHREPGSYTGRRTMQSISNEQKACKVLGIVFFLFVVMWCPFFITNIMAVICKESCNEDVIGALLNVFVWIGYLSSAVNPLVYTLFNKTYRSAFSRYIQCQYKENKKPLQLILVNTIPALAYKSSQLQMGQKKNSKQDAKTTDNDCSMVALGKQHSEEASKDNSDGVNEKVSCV

## COc1cc2c(cc1OC)C(C[C@H]1CCCN1C)CN2 (stereo partly drawn) [(R) I-81, 5,6-Dimethoxy-3-(((R)-I-methylpyrrolidin-2-yl)methyl)indoline]
[1]
  5-HT2A (FLIPR) RFU@10 μM: 294 RFU

## CN1CCC[C@@H]1C[C@H]1CNc2ccc(F)cc21 [(R),(R)-I-47, (R)-5-fluoro-3-(((R)-I-methylpyrrolidin-2-yl)methyl)indoline]
[2]
  Predicted hepatic CL: 2.74 mL/min/kg
  CLint scaled at 2 μM: 3.15 mL/min/kg
  half-life at 2 μM: 9.19 h
  microsomal CLint at 2 μM: 2.51 µL/min/mg
[2]; With NADPH, 0 min
  Remaining Percentage: 100.00%
[2]; With NADPH, 30 min
  Remaining Percentage: 108.74%
[2]; With NADPH, 60 min
  Remaining Percentage: 92.73%
[2]; Without NADPH, 0 min
  Remaining Percentage: 100.00%
[2]; Without NADPH, 30 min
  Remaining Percentage: 102.35%
[2]; Without NADPH, 60 min
  Remaining Percentage: 95.13%
[3]
  Predicted hepatic CL: 13.24 mL/min/kg
  CLint scaled at 2 μM: 15.5 mL/min/kg
  half-life at 2 μM: 6.51 h
  microsomal CLint at 2 μM: 3.55 µL/min/mg
[3]; With NADPH, 0 min
  Remaining Percentage: 100.00%
[3]; With NADPH, 30 min
  Remaining Percentage: 114.03%
[3]; With NADPH, 60 min
  Remaining Percentage: 89.90%
[3]; Without NADPH, 0 min
  Remaining Percentage: 100.00%
[3]; Without NADPH, 30 min
  Remaining Percentage: 114.71%
[3]; Without NADPH, 60 min
  Remaining Percentage: 87.16%
[1]
  EC50: 91 nM
  5-HT2A (FLIPR) RFU@10 μM: 787 RFU
[4]
  Predicted hepatic CL: 45.31 mL/min/kg
  CLint scaled at 2 μM: 253 mL/min/kg
  half-life at 2 μM: 0.164 h
  microsomal CLint at 2 μM: 141 µL/min/mg
[4]; With NADPH, 0 min
  Remaining Percentage: 100.00%
[4]; With NADPH, 30 min
  Remaining Percentage: 5.12%
[4]; With NADPH, 60 min
  Remaining Percentage: 1.45%
[4]; Without NADPH, 0 min
  Remaining Percentage: 100.00%
[4]; Without NADPH, 30 min
  Remaining Percentage: 108.30%
[4]; Without NADPH, 60 min
  Remaining Percentage: 100.00%

## [2H]C([2H])([2H])N1CCC[C@@H]1CC1CNc2cc(OC)c(OC)cc21 (stereo partly drawn) [(R)-I-82, 5,6-dimethoxy-3-(((R)-I-(methyl-d3)pyrrolidin-2-yl)methyl)indoline]
[1]
  EC50: 1560 nM
  5-HT2A (FLIPR) RFU@10 μM: 479 RFU

## COc1cccc2c1C(C[C@H]1CCCN1C)CN2 (stereo partly drawn) [(R)-I-94, 4-Methoxy-3-(((R)-I-methylpyrrolidin-2-yl)methyl)indoline]
[2]
  Predicted hepatic CL: 5.63 mL/min/kg
  CLint scaled at 2 μM: 7.74 mL/min/kg
  half-life at 2 μM: 3.74 h
  microsomal CLint at 2 μM: 6.17 µL/min/mg
[2]; With NADPH, 0 min
  Remaining Percentage: 100.00%
[2]; With NADPH, 30 min
  Remaining Percentage: 100.93%
[2]; With NADPH, 60 min
  Remaining Percentage: 83.11%
[2]; Without NADPH, 0 min
  Remaining Percentage: 100.00%
[2]; Without NADPH, 30 min
  Remaining Percentage: 108.38%
[2]; Without NADPH, 60 min
  Remaining Percentage: 98.20%
[3]
  Predicted hepatic CL: >84.35 mL/min/kg
  CLint scaled at 2 μM: > 1340 mL/min/kg
  half-life at 2 μM: < 0.0752 h
  microsomal CLint at 2 μM: > 307 µL/min/mg
[3]; With NADPH, 0 min
  Remaining Percentage: 100.00%
[3]; With NADPH, 30 min
  Remaining Percentage: 0.84%
[3]; With NADPH, 60 min
  Remaining Percentage: 0.29%
[3]; Without NADPH, 0 min
  Remaining Percentage: 100.00%
[3]; Without NADPH, 30 min
  Remaining Percentage: 109.64%
[3]; Without NADPH, 60 min
  Remaining Percentage: 106.02%
[1]
  EC50: 9 nM
  5-HT2A (FLIPR) RFU@10 μM: 545 RFU
[4]
  Predicted hepatic CL: 19.77 mL/min/kg
  CLint scaled at 2 μM: 30.8 mL/min/kg
  half-life at 2 μM: 1.34 h
  microsomal CLint at 2 μM: 17.2 µL/min/mg
[4]; With NADPH, 0 min
  Remaining Percentage: 100.00%
[4]; With NADPH, 30 min
  Remaining Percentage: 84.38%
[4]; With NADPH, 60 min
  Remaining Percentage: 59.71%
[4]; Without NADPH, 0 min
  Remaining Percentage: 100.00%
[4]; Without NADPH, 30 min
  Remaining Percentage: 104.88%
[4]; Without NADPH, 60 min
  Remaining Percentage: 96.34%

## COc1cccc2c1NCC2C[C@H]1CCCN1C (stereo partly drawn) [(R)-I-95, 7-Methoxy-3-(((R)-I-methylpyrrolidin-2-yl)methyl)indoline]
[1]
  5-HT2A (FLIPR) RFU@10 μM: 321 RFU

## COc1ccc2c(c1)C(C[C@H]1CCCN1)CN2 (stereo partly drawn) [(R)-I-165, 5-Methoxy-3-(((R)-pyrrolidin-2-yl)methyl)indoline]
[2]
  Predicted hepatic CL: 0.00 mL/min/kg
[2]; human liver microsomes, 2 μM
  T1/2: ∞
[2]; With NADPH, 0 min
  Remaining Percentage: 100.00%
[2]; With NADPH, 30 min
  Remaining Percentage: 111.72%
[2]; With NADPH, 60 min
  Remaining Percentage: 114.92%
[2]; Without NADPH, 0 min
  Remaining Percentage: 100.00%
[2]; Without NADPH, 30 min
  Remaining Percentage: 99.07%
[2]; Without NADPH, 60 min
  Remaining Percentage: 85.51%
[3]
  Predicted hepatic CL: 37.78 mL/min/kg
  CLint scaled at 2 μM: 65.1 mL/min/kg
  half-life at 2 μM: 1.55 h
  microsomal CLint at 2 μM: 14.9 µL/min/mg
[3]; With NADPH, 0 min
  Remaining Percentage: 100.00%
[3]; With NADPH, 30 min
  Remaining Percentage: 90.44%
[3]; With NADPH, 60 min
  Remaining Percentage: 63.99%
[3]; Without NADPH, 0 min
  Remaining Percentage: 100.00%
[3]; Without NADPH, 30 min
  Remaining Percentage: 100.70%
[3]; Without NADPH, 60 min
  Remaining Percentage: 117.77%
[1]
  EC50: 57 nM
  5-HT2A (FLIPR) RFU@10 μM: 1,318 RFU
[4]
  Predicted hepatic CL: 31.82 mL/min/kg
  CLint scaled at 2 μM: 75.1 mL/min/kg
  half-life at 2 μM: 0.551 h
  microsomal CLint at 2 μM: 41.9 µL/min/mg
[4]; With NADPH, 0 min
  Remaining Percentage: 100.00%
[4]; With NADPH, 30 min
  Remaining Percentage: 53.50%
[4]; With NADPH, 60 min
  Remaining Percentage: 28.43%
[4]; Without NADPH, 0 min
  Remaining Percentage: 100.00%
[4]; Without NADPH, 30 min
  Remaining Percentage: 106.00%
[4]; Without NADPH, 60 min
  Remaining Percentage: 119.73%

## CN1CCC[C@@H]1C[C@@H]1CNc2ccc(F)cc21 [(S),(R)-I-47, (S)-5-fluoro-3-(((R)-I-methylpyrrolidin-2-yl)methyl)indoline]
[1]
  EC50: 76 nM
  5-HT2A (FLIPR) RFU@10 μM: 797 RFU

## COc1ccc2c(c1)C(C[C@@H]1CCCN1C)CN2 (stereo partly drawn) [(S)-I-54, 5-Methoxy-3-(((S)-I-methylpyrrolidin-2-yl)methyl)indoline]
[1]
  5-HT2A (FLIPR) RFU@10 μM: 444 RFU

## COc1ccc2[nH]cc(CCN(C)C)c2c1 [Compound 5-MeO-DMT]
[5]; 1 mg/kg SC
  head twitch response (mean head twitches over 1 hr): 3.0
[5]; 3 mg/kg SC
  head twitch response (mean head twitches over 1 hr): 4.2
[5]; 10 mg/kg SC
  head twitch response (mean head twitches over 1 hr): 7.8
[5]; 30 mg/kg SC
  head twitch response (mean head twitches over 1 hr): 12.3
[5]; SC, psilocybin 0.1-10, 5-MeO DMT 1-30, (R)-I-54 1-60 mg/kg
  head twitch response over the dose range tested: monotonic increase in head twitches
[5]; SC
  other behavioural and somatic signs accompanying head twitches: other behavioural signs associated with 5-HT syndrome (forepaw treading, straub tail, body twitches, backwards walking) emerged

## CN(C)CCc1c[nH]c2ccccc12 [DMT, N,N-dimethyltryptamine, reference compound]
[1]
  5-HT2A (FLIPR) RFU@10 μM: 381 RFU

## CN(C)CCc1c[nH]c2cccc(O)c12 [Psilocin, reference compound]
[1]
  5-HT2A (FLIPR) RFU@10 μM: 416 RFU and 308 RFU

## CN(C)CCc1c[nH]c2cccc(OP(=O)(O)O)c12 [Psilocybin]
[5]; 0.1 mg/kg SC
  head twitch response (mean head twitches over 1 hr): 4.8
[5]; 0.3 mg/kg SC
  head twitch response (mean head twitches over 1 hr): 6.3
[5]; 1 mg/kg SC
  head twitch response (mean head twitches over 1 hr): 16.3
[5]; 3 mg/kg SC
  head twitch response (mean head twitches over 1 hr): 7.8
[5]; 10 mg/kg SC
  head twitch response (mean head twitches over 1 hr): 5.5
[5]; SC
  dose of peak head twitch response: 1 mg/kg
  other behavioural and somatic signs accompanying head twitches: decreased locomotion and decreased core body temperature
